In data set [1] the test system is MCF-7 (Breast) taxol resistant cancer cells. The data set can be described thus: MTT cytotoxicity assay, MCF-7 taxol resistant. The format is cell-based, human. The method, then: (§1) Cell cultures and cytotoxicity assays have been used. Celastrol was dissolved in DMSO at a final concentration of 100 mmol/L and stored at −20° C. Cytotoxicity was assessed using the 3-(4,5-dimethylthiazol-2-yl)-2,5-diphenyltetrazolium bromide assay. 4000 cells from A549 (lung), A2780 (ovary), HCT-8 (colon) and MCF-7 (breast) cancer cells were seeded on 96-well plates per well. After overnight pre-incubation, the cells were exposed to different concentrations of celastrol (0.039-100 μmol/L) or taxol for 3 days. Subsequently, 10 μL of MTT reagents was added to each well and incubated at 37° C. for 4 hours followed by the addition of 100 μL solubilization buffer (10% SDS in 0.01 mol/L HCl) and overnight incubation. Absorbance at 585 nm was determined from each well the next day. The percentage of cell viability was calculated using the following formula: Cell viability (%)=Cells number treated/Cells number DMSO control×100. Data were obtained from three independent experiments.

Data set [2] has as its system HCT-8 (Colon) taxol resistant cancer cells. The data set can be described thus: MTT cytotoxicity assay, HCT-8 taxol resistant. The format is cell-based, human. As for the experimental part: as §1
Data set [3] concerns SGC-7901 (Gastric) cisplatin sensitive cancer cells. The data set is described as follows: MTT cytotoxicity assay, SGC-7901 cisplatin sensitive. It is filed as cell-based, human. The following applies: Homo sapiens, SGC-7901, 72 h, read-out: IC50 SGC-7901 (Gastric) (Cisplatin sensitive). The method, then:
as §1, with “from” for “from A549 (lung),”, “A2780 cisplatin sensitive/resistant ovarian cancer cells or SGC-7901 cisplatin sensitive/resistant gastric” for “A2780 (ovary), HCT-8 (colon) and MCF-7 (breast)”, “or cisplatin” for “or taxol”, “reagents were” for “reagents was”

The test system of data set [4] is A2780 (Ovary) taxol resistant cancer cells. The data set can be described thus: MTT cytotoxicity assay, A2780 taxol resistant. It is filed as cell-based, human. The settings on record: for Resistant Factor: A2780 taxol resistant versus taxol sensitive. As for the experimental part: as §1
Data set [5] concerns DLD-1 Bax-Bak-/- colon cancer cells. The data set can be described thus: MTT cytotoxicity assay, DLD-1 Bax-Bak-/-. The format is cell-based. As for the experimental part:
as §1, with “from HCT116 p53^+/+ or p53^−/− colon cancer cells” for “from A549 (lung), A2780 (ovary), HCT-8 (colon)”, “and DLD-1 Bax-Bak^+/+ or Bax-Bak^−/− colon” for “and MCF-7 (breast)”, “well. […]” for “well. After overnight pre-incubation, the cells were exposed to different concentrations of celastrol (0.039-100 μmol/L) or taxol for 3 days.”, “reagents were” for “reagents was”, “incubation. […]” for “incubation. Absorbance at 585 nm was determined from each well the next day.”

The test system of data set [6] is A549 (Lung) taxol resistant cancer cells. The data set can be described thus: MTT cytotoxicity assay, A549 taxol resistant. The format is cell-based, human. The method, then:
as §1

In data set [7] the test system is A549 taxol-resistant lung cancer cells. The data set can be described thus: Annexin V flow cytometry analysis of cell death. It is filed as cell-based, human. The following applies: 24 h. The method, then: Annexin V flow cytometry analysis has been carried out. Cell death and viability were measured using an Annexin V staining kit (BD Biosciences, San Jose, Calif., USA).
Briefly, A549 taxol-resistant cancer cells were treated with 0.1-0.5 μM celastrol with or without 40 μM of taxol for 24 h. Cells were then harvested and analysed by multiparametric flow cytometry using FITC-Annexin V and propidium iodide staining (BD Biosciences, San Jose, Calif., USA) according to the manufacturer's instructions. Flow cytometry was then carried out using a FACSCalibur flow cytometer (BD Biosciences, San Jose, Calif., USA). Data acquisition and analysis was performed with CellQuest (BD Biosciences, San Jose, Calif., USA). Data were obtained from three independent experiments.

The subject of data set [8] is CCRF-CEM (Leukemia) doxorubicin sensitive cells. The data set is described as follows: MTT cytotoxicity assay, CCRF-CEM. The format is cell-based. The settings on record: Homo sapiens, 72 h, 3 days. The method, then: as §1, with “from” for “from A549 (lung), A2780 (ovary), HCT-8 (colon) and”, “MCF-7 doxorubicin sensitive/resistant breast” for “MCF-7 (breast)”, “cancer cells or CEM doxorubicin sensitive/resistant leukemia” for “cancer”, “or doxorubicin” for “or taxol”, “reagents were” for “reagents was”

In data set [9] the test system is A2780 (Ovary) cisplatin sensitive cancer cells. The data set is described as follows: MTT cytotoxicity assay, A2780 cisplatin sensitive. The format is cell-based, human. The following applies: Homo sapiens, A2780, 72 h, read-out: IC50 A2780 (Ovary) (Cisplatin sensitive). As for the experimental part: as §1, with “from” for “from A549 (lung),”, “A2780 cisplatin sensitive/resistant ovarian cancer cells or SGC-7901 cisplatin sensitive/resistant gastric” for “A2780 (ovary), HCT-8 (colon) and MCF-7 (breast)”, “or cisplatin” for “or taxol”, “reagents were” for “reagents was”

The test system of data set [10] is A549 (Lung) taxol sensitive cancer cells. The data set can be described thus: MTT cytotoxicity assay, A549 taxol sensitive. The format is cell-based. The settings on record: Homo sapiens, A549, 72 h, read-out: IC50 A549 (Lung) (Taxol sensitive). As for the experimental part: as §1

Results on 1 compound are retold here after US10322097B2, “Treatment of subjects with multidrug-resistant cancer” (priority 2015, dated 2019).

Take `CC1=C(O)C(=O)C=C2C1=CC=C1[C@@]2(C)CC[C@@]2(C)[C@@H]3C[C@](C)(C(=O)O)CC[C@]3(C)CC[C@]12C` [Celastrol, celastrol]: the IC50 in data set [1] (Homo sapiens, MCF7, 72 h, read-out: IC50 MCF-7 (Breast) (Taxol resistant)) amounted to 730 nM; in [2] (Homo sapiens, HCT-8, 72 h, read-out: IC50 HCT-8 (Colon) (Taxol resistant)), 553 nM; in data set [3] it was 1940 nM; in data set [4] (Homo sapiens, A2780, 72 h, read-out: IC50 A2780 (Ovary) (Taxol resistant)) it was 540 nM; in data set [5] (Homo sapiens, DLD-1, 72 h, read-out: IC50 DLD-1 Bax-Bak-/- colon cancer cells) it was 184 nM; in data set [6] (Homo sapiens, A549, 72 h, read-out: IC50 A549 (Lung) (Taxol resistant)), 1000 nM. For the same compound, the IC50 in data set [8] came to 3260 nM; in data set [9] it was 525 nM; in [10], 2400 nM. The “Resistant Factor” value in [1] (MCF-7 taxol resistant versus taxol sensitive) worked out at 0.65; in [2] (HCT-8 taxol resistant versus taxol sensitive), 0.59; in [4], 0.60; in data set [4] (listed as celastrol), 0.6; in [5] (IC50 DLD-1 Bax-Bak-/- divided by IC50 DLD-1 Bax-Bak+/+), 0.32; in data set [6] (A549 taxol resistant versus taxol sensitive), 0.42. Besides, in data set [7] (0.1-0.5 μM celastrol alone), the “cytotoxicity (cell death, Annexin V)” value is on record as “limited cytotoxicity”. Besides, in data set [7] (0.1-0.5 μM celastrol with 40 μM taxol), the “taxol-mediated cytotoxicity (cell death, Annexin V) on co-treatment” value is “significantly enhanced”.
